Results on twelve compounds are retold here after PubChem BioAssay AID2060512 (Molecular Pharmacology Branch, DTP, NCI, 2025).

Several values for one entry are separate records, joined by “and”; a condition that tells them apart may be missing. Equal values may be shown once. Some results are limits rather than exact numbers.

The viability, T/C is the result in the treated group divided by that in the control group, in per cent. Broadly, the IC50 is the concentration that inhibits the measured activity by half.

This experiment deals with 186277-243-T-J2-PDC complex spheroid viability. Briefly: Anticancer human tumor 186277-243-T-J2-PDC patient-derived colon adenocarcinoma cell line growth inhibition [GQUAD]. The settings on record: for viability, T/C: stronger effect = lower value. An excerpt: DNA G-quadruplex Stabilizer Agents in Combinations in Complex Spheroids
A high-throughput screen of multi-cell type tumor spheroids was designed to identify active combinations of DNA G-quadruplex stabilizer agents and targeted small molecules. Complex spheroids include a stromal component modeled by human endothelial cells (HUVEC) and fibroblasts modeled by human mesenchymal stem cells (MSCs). The concentration ranges selected for each drug and investigational agent were based upon clinically achievable concentrations if the clinical Cmax of the agent was known.
Compounds. The drugs and investigational agents: pidnarulex (CX-5461; NSC782164), APTO-253 (NSC789042), BRACO-19 (NSC847499), peposertib (NSC802822), ceralasertib (NSC780249), elimusertib (NSC800525), camonsertib (NSC841442), AZD-1390 (NSC803789), olaparib (NSC753686), talazoparib (NSC767125), ART-558 (NSC835418), sotorasib (NSC818433), MRTX-1133 (NSC836407), SN-38 (NSC673596), topotecan (NSC609699), etoposide (NSC141540), doxorubicin (NSC123127), gemcitabine (NSC613327), 5-fluorouracil (NSC19893), paclitaxel (NSC125973), vemurafenib (NSC761431), panobinostat (NSC761190), R-306465 (JNJ-16241199; NSC773264), adavosertib (NSC754352), TP-3654 (NSC805149), carboplatin (NSC241240), KSQ-4279 (NSC840948), and staurosporine (NSC755774) were obtained from the National Cancer Institute (NCI) Developmental Therapeutics Program Chemical Repository (34). The FDA-approved anticancer drug set is available from the NCI Developmental Therapeutics Program. […] The stock solutions were prepared in dimethyl sulfoxide (DMSO, Sigma-Aldrich, St. Louis, MO, cat. D2650) at 800-fold the tested concentration and stored at -70 degrees C prior to their use. All drugs and investigational agents were tested over a range starting from a high concentration at or near the clinical Cmax and decreasing in half-log increments. If the clinical Cmax for an agent had not been determined, the highest concentration tested was 10 microM.
2.3 Cell Culture. All cells were maintained in an incubator at 37 degrees C and 5% CO2 with 95% humidity. The PDC lines were cultured according to standard operating procedures established by the NCI PDMR. All PDCs were thawed and cultured in Matrigel-coated flasks prepared with a working solution of 1X Ham's F-12 nutrient mix, without supplementation (Invitrogen, cat. 11765054), 100 U/mL penicillin-streptomycin (Invitrogen, cat. 15140122), and 2.5% Matrigel (Corning Inc., cat. 354248) for the first three passages. The 857933-349-R-J2-PDC line was cultured in 6C/Colon 1B media, which includes advanced DMEM/F-12 (Thermo Fisher Scientific, cat. 12634028), 10 mM HEPES (Thermo Fisher Scientific, cat. 15630080), 1X GlutaMAX supplement (Thermo Fisher Scientific, cat. 35050061), 0.1 mg/mL primocin (InvivoGen, cat. ant-pm-2), 10% defined fetal bovine serum, heat inactivated (HyClone Laboratories Inc., cat. SH30070.03HI), 50% L-WRN conditioned media (ATCC, cat. CRL-3276), 1.25 mM N-Acetyl-L-cysteine (Sigma-Aldrich, cat. A9165), 10 mM nicotinamide (Sigma-Aldrich, cat. N0636), 1X B-27 supplement (Thermo Fisher Scientific, cat. 17504044), 1X N-2 supplement (Thermo Fisher Scientific, cat. 17502048), 10 microM Y-27632 dihydrochloride (Tocris Bioscience, cat. 1254), and 50 ng/mL human EGF recombinant protein (Thermo Fisher Scientific, cat. PHG0311). The 485176-168-R4-J1-PDC line was cultured in Panc media, which includes all 6C/Colon 1B media components plus 100 ng/mL human FGF-10 (Thermo Fisher Scientific, cat. 100-26), 500 nM SB-431542 (Selleckchem, cat. S1067), and gastrin (Tocris, cat. 3006).
[…]

Where [1] appears, read: compound alone, run of 04/16/2024.
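Note: spheroids exposed to drugs for 7 days.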

In the case of `CC(C)n1c(=O)n(C)c2cnc3cc(F)c(-c4ccc(OCCCN5CCCCC5)nc4)cc3c21`, the viability, T/C runs as follows: (compound 0.0316 µM) 99.3% and 98.7% and 80.8%; (compound 0.1 µM) 90.1% and 89.8% and 84.8%; (compound 0.316 µM) 106% and 104% and 82.1%; (compound 1 µM) 96.6% and 119% and 84.2%; (compound 3.16 µM) 104% and 106% and 97.2%; (compound 10 µM) 89.4% and 101% and 76%. The concentration for half-maximal inhibition (IC50) (curve of compound) is > 10000 nM.

On to `CC1COCCN1c1cc(-c2ccnn2C)c2ccnc(-c3ccn[nH]3)c2n1` (stereo not drawn), for which the viability, T/C (compound 0.0316 µM) is 81.1% and 73.3% and 66.4%; the viability, T/C (compound 0.1 µM) was 12.5% and 11.9% and 12.3%; the viability, T/C (compound 0.316 µM) was 7.41% and 7.05% and 7.85%; the viability, T/C (compound 1 µM) is 5.96% and 5.12% and 5.67%; the viability, T/C (compound 3.16 µM) is 5.8% and 4.75% and 4.94%; the viability, T/C (compound 10 µM) was 7.05% and 4.45% and 5.66%. The IC50 (curve of compound) is 53.3 nM and 48.9 nM and 44.7 nM.

Consider `CC1COCCN1c1cc(C2(O)CC3CCC(C2)O3)c2cnn(-c3ccn[nH]3)c2n1` (stereo not drawn), for which the viability, T/C is 64.6% and 66.1% and 52.2% (compound 0.0316 µM); 13.1% and 14.8% and 10% (compound 0.1 µM); 7.61% and 5.43% and 6.02% (compound 0.316 µM); 4.72% and 5.45% and 4.44% (compound 1 µM); 4.67% and 5.36% and 4.31% (compound 3.16 µM); 3.02% and 2.97% and 3.42% (compound 10 µM). The IC50 (curve of compound) is 43.7 nM and 45.3 nM and 33.4 nM.

Regarding `CC1COCCN1c1cc(C2(S(C)(=N)=O)CC2)nc(-c2ccnc3[nH]ccc23)n1` (stereo not drawn), the viability, T/C was 98.7% and 91.8% and 97.2% (compound 0.0316 µM); 84.2% and 100% and 98.6% (compound 0.1 µM); 102% and 104% and 95.6% (compound 0.316 µM); 52.7% and 36.2% and 49% (compound 1 µM); 18.2% and 7.52% and 14.2% (compound 3.16 µM); 6.83% and 5.23% and 6.65% (compound 10 µM). Also, the concentration for half-maximal inhibition (IC50) (curve of compound) is 1080 nM and 775 nM and 990 nM.

As to `CC[C@@]1(O)C(=O)OCc2c1cc1n(c2=O)Cc2cc3c(CN(C)C)c(O)ccc3nc2-1`, the viability, T/C by setting is: (compound 0.000999 µM) 105% and 97.5% and 100%; (compound 0.00316 µM) 97.5% and 99.2% and 96.2%; (compound 0.00999 µM) 97.4% and 111% and 103%; (compound 0.0316 µM) 87.6% and 77.7% and 96.6%; (compound 0.0999 µM) 72.4% and 55.3% and 59.9%; (compound 0.316 µM) 50.6% and 42.9% and 46.2%. In addition, the concentration for half-maximal inhibition (IC50) (curve of compound) was > 316 nM and 104 nM and 230 nM.

With `CCc1c2c(nc3ccc(O)cc13)-c1cc3c(c(=O)n1C2)COC(=O)[C@]3(O)CC`, the viability, T/C was 88.2% and 83.6% and 97.2% (compound 0.000999 µM); 72.1% and 57.3% and 65.1% (compound 0.00316 µM); 50.2% and 50.4% and 45.2% (compound 0.00999 µM); 30.8% and 29.4% and 34.3% (compound 0.0316 µM); 21.3% and 14.5% and 21.4% (compound 0.0999 µM); 18.9% and 11.2% and 16.2% (compound 0.316 µM). In addition, the concentration for half-maximal inhibition (IC50) (curve of compound) is 9.82 nM and 7.08 nM and 7.82 nM.

On to `COc1ccc([C@@H](O)c2cc(-c3ncnc4cc(N5CCOCC5)ccc34)c(F)cc2Cl)nn1`, for which the viability, T/C (compound 0.0316 µM) was 97.6% and 103% (2×); the viability, T/C (compound 0.1 µM) was 84.1% and 107% and 101%; the viability, T/C (compound 0.316 µM) was 115% and 112% and 97.2%; the viability, T/C (compound 1 µM) was 95.7% and 90.8% and 108%; the viability, T/C (compound 3.16 µM) was 63% and 66.2% and 70%; the viability, T/C (compound 10 µM) was 41.8% and 24.9% and 33.5%. For the setting “curve of compound”, the IC50 was 6400 nM and 4880 nM and 5940 nM.

With `Cc1[nH]c2ccc(F)cc2c1-c1nc2c3cccnc3c3ncccc3c2[nH]1`, the viability, T/C is, setting by setting: (compound 0.0316 µM) 100% [middle of 12 runs]; (compound 0.1 µM) 101% [middle of 12 runs]; (compound 1 µM) 107% [middle of 12 runs]; (compound 3.16 µM) 98.9% [middle of 12 runs]; (compound 10 µM) 92.4% [middle of 12 runs]. The half-maximal inhibitory concentration (IC50) runs as follows: under setting [1], > 10000 nM; (compound alone, run of 04/22/2024) > 10000 nM.

Regarding `Cc1[nH]c2ccccc2c1CCNCc1ccc(/C=C/C(=O)NO)cc1`, the viability, T/C runs as follows: (compound 0.000999 µM) 107% and 92.7% and 99%; (compound 0.00316 µM) 89.4% and 96.9% and 90%; (compound 0.00999 µM) 92.2% and 94.9% and 101%; (compound 0.0316 µM) 60% and 92.1% and 97.2%; (compound 0.0999 µM) 18.4% and 8.39% and 19.1%; (compound 0.316 µM) 0.49% and 2.16% and 2.64%. In addition, under “curve of compound”, the IC50 is 41.9 nM and 56.4 nM and 63.2 nM.

In the case of `Cc1cnc(CNC(=O)c2c(=O)c3ccc(N4CCCN(C)CC4)nc3n3c2sc2ccccc23)cn1`, the viability, T/C reads like this: (compound 0.0316 µM) 97.7% [middle of 12 runs]; (compound 0.316 µM) 76.8% [middle of 12 runs]; (compound 1 µM) 61.5% [middle of 12 runs]; (compound 3.16 µM) 43.7% [middle of 12 runs]; (compound 10 µM) 39.7% [middle of 12 runs]. Also, the IC50 under setting [1] was 2.36 µM [middle of 12 runs].

For `Cn1ncnc1[C@H]1c2n[nH]c(=O)c3cc(F)cc(c23)N[C@@H]1c1ccc(F)cc1`, the viability, T/C runs as follows: (compound 0.000999 µM) 99.3% and 96.1% and 115%; (compound 0.00316 µM) 93.5% and 96.6% and 91%; (compound 0.00999 µM) 94.1% and 100% and 98.4%; (compound 0.0316 µM) 111% and 110% and 97.4%; (compound 0.0999 µM) 87.5% and 91.4% and 106%; (compound 0.316 µM) 92.4% and 86.5% and 90.8%. Also, under “curve of compound”, the IC50 was > 316 nM.

Regarding `O=C(c1cc(Cc2n[nH]c(=O)c3ccccc23)ccc1F)N1CCN(C(=O)C2CC2)CC1`, the viability, T/C (compound 0.0316 µM) was 102% and 105% and 100%; the viability, T/C (compound 0.1 µM) was 108% (2×) and 94.6%; the viability, T/C (compound 0.316 µM) is 96.4% and 112% and 87.3%; the viability, T/C (compound 1 µM) is 94.3% and 104% and 77.3%; the viability, T/C (compound 3.16 µM) is 93.3% and 92% and 82.2%; the viability, T/C (compound 10 µM) is 62.3% and 64.2% and 66.5%. For the same compound, the IC50 (curve of compound) is > 10000 nM.
